“Also recorded” adds a separate entry of the source.
Legend:
[1] = target: T1, IDO1 expressed in MCF-7 cells (Homo sapiens, UniProt P14902); experiment: IDO1 inhibitory assay in cell lines (kynurenine, IFN-γ induced), MCF-7; assay type: cell-based; details: MCF7; 100 μM inhibitor concentration
T1 construct: endogenous in cells; host or cells: MCF-7 (IFN-γ induced)
Procedure: (§1) IDO1 cellular activity assay was carried out by standard literature protocols. […] First of all, cells grew in high glucose DMEM medium containing 10% FBS and antibiotics. […] Then, 1 × 10^4 cells were seeded in 96-well plates and cultivated in carbon dioxide incubator at 37 °C containing 5% CO2 for 24 h. On day two, each well in the plates were treated with fresh DMEM medium, which contained L-Trp (20 μg/mL), IFN-γ (10 ng/mL), and different concentrations of inhibitor. The plate was incubated for 48 h further. Then, 140 μL of supernatant from each well was transferred into centrifuge tubes correlatively. An amount of 10 μL of 30% trichloroacetic acid (w/v) was added to each tube aimed to precipitate proteins. Subsequently, sample incubation (65 °C, 30 min) was required to make the N′-formylkynurenine (NFK) change into kynurenine which was the final product. Soon afterwards, the sample was centrifuged at 8000 rpm for 10 min. An amount of 100 μL supernatant from each tube was transferred into a new 96-well plate with an equal amount of 2% pDMAB added. The concentration of kynurenine could be measured because it reacts with pDMAB to form a product with a UV–vis absorption at 492 nm. To estimate cell viability, 1 × 10^4 normal cells named L02 were seeded in 96-well flat bottom plates with a final volume of 200 μL of DMEM complete growth medium. After being incubated for 24 h at 37 °C, the culture was replaced by a fresh complete growth medium (200 μL) and four inhibitors (200 μM) were added individually. Then, 48 h later, the medium was replaced by PBS (180 μL) mixed with CCK8 solution (20 μL) in each well. Cell viability was evaluated by testing the OD450nm. Finally, all data in cell experiments were processed by GraphPad Prism 7.00 to obtain the IDO1 inhibitory percentage of each inhibitor in the cells and the cell viability.

[2] = target: T2, IDO1 expressed in 4T1 cells (Mus musculus, UniProt P28776); experiment: IDO1 inhibitory assay in cell lines (kynurenine, IFN-γ induced), 4T1; assay type: cell-based; details: 100 μM inhibitor concentration
T2 construct: endogenous in cells; host or cells: 4T1 (IFN-γ induced)
Procedure: as §1

IDO1 [3] = target: T3, IDO1 (Homo sapiens, UniProt P14902); experiment: Enzyme-based IDO1 inhibitory assay (UV–vis, product at 320 nm); assay type: biochemical; details: for IC50: 100 μM L-Trp, mean ± SD, three determinations; for Ki: L-Trp 50, 100, 150 μM, [S]/[V] against [I] plot (Cornish-Bowden); for Type of Inhibition: position of intersections in [S]/[V] against [I] plot
Procedure: The IDO1 inhibitory assay was performed according to standard literature protocols with some modifications. The UV–vis method was used for evaluating the inhibitory activity of inhibitors against IDO1. Specifically, IDO1 (1 μM, 1 mL) was prepared by phosphate buffer (100 mM, pH 6.5) containing catalase (200 μg/mL), methylene blue (10 μM), and ascorbic acid (10 mM, pH 6.5). Concentrations of every inhibitor were varied from 1 to 200 μM, and experimental samples were incubated at 37 °C for 10 min. Then, a certain concentration of L-Trp was added before monitoring the product at 320 nm by UV–vis spectrophotometer immediately.
The inhibition percent of each inhibitor was determined by [1 − (A/B)] × 100%, where A is the enzymatic activity of IDO1 with inhibitor added and B is the absence of the inhibitor. […] The plot was described by the percent inhibition against Log10 concentration of the inhibitor.
Ki values of inhibitors were obtained by intersection of the three fitted lines in the plot, which was the absolute value of the X-axis value of the intersection. The plot was described by [S]/[V] against inhibitor concentration, where [S] and [V] were the substrate concentration and the reaction velocity, respectively. Furthermore, protein-inhibitor binding modes were determined by the position of the intersections in the plot. Data processing was performed by Origin 7.5.

[4] = target: IDO1 expressed in CT26 cells (Mus musculus, UniProt P28776); experiment: IDO1 inhibitory assay in cell lines (kynurenine, IFN-γ induced), CT26; assay type: cell-based; details: 100 μM inhibitor concentration
Procedure: as §1

[5] = target: IDO1 expressed in HeLa cells (Homo sapiens, UniProt P14902); experiment: IDO1 inhibitory assay in cell lines (kynurenine, IFN-γ induced), HeLa; assay type: cell-based; details: 100 μM inhibitor concentration
Procedure: as §1

IDO1 [6] = target: T3, IDO1; experiment: Determination of the inhibition types (reversible or irreversible; [V] versus [E] plot); assay type: biochemical; details: 100 μM inhibitor, 100 μM L-Trp
Procedure: Based on the results of UV–vis spectra, the determination of inhibitory types was carried out according to the reference. The inhibitor was defined as reversible if the fitted lines were intersected in the plot (Figure 4A).
Different concentrations of IDO1 (1 mL) were prepared with 100 mM phosphate buffer (pH 6.5) containing methylene blue (10 μM), catalase (200 μg/mL), and ascorbic acid (10 mM, pH 6.5). Each sample was incubated at 37 °C for 10 min. An amount of 100 μM L-Trp was added before measuring by UV–vis spectrophotometer at 320 nm. The only difference for the other set of groups was 100 μM inhibitor was added in each sample before incubating. The data were analyzed by Origin 7.5, and plot of reaction rate [V] versus enzyme amount [E] was proposed using linear fit. The determination of inhibitory types was based on the linear trend of the fitted plot.

T3 sequence (P14902 whole entry): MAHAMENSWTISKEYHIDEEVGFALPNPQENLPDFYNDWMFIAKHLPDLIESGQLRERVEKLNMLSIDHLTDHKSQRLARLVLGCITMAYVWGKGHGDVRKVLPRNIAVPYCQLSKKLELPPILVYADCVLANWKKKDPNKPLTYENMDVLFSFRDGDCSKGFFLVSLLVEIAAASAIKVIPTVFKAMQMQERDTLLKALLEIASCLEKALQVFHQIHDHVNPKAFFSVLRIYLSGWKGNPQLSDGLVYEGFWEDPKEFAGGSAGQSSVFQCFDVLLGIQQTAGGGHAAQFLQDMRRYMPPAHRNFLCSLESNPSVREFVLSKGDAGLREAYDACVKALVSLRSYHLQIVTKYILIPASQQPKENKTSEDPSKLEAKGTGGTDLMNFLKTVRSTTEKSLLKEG
T1 sequence (P14902 whole entry): as above
Sequence of IDO1 expressed in HeLa cells (P14902 whole entry): as above
T2 sequence (P28776 whole entry): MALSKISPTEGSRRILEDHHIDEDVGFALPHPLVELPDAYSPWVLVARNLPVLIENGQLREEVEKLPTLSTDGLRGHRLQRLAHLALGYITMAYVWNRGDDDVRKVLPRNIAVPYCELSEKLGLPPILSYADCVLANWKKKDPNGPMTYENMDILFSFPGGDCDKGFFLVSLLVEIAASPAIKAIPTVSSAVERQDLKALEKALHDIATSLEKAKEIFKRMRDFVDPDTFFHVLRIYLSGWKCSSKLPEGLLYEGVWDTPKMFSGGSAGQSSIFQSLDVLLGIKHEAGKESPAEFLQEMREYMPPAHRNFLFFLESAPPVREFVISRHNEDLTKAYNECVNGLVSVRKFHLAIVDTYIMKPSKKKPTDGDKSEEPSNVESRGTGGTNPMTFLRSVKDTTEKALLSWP
Sequence of IDO1 expressed in CT26 cells (P28776 whole entry): as above

In the case of `COC(=O)[C@H]1N[C@@H](c2ccccc2)[C@@]2(C(=O)Nc3ccccc32)[C@@H]1c1ccccc1` [inhibitor 1], the inhibition at 100 µM [1] is reported as 23.7 ± 2%, the inhibition at 100 µM [2] is reported as 2.6 ± 0.6% and the IC50 (IDO1 [3]) is reported as 25.2 ± 3.6 µM. The Ki (IDO1 [3]) was 42.3 ± 0.8 µM, the “Type of Inhibition” value (IDO1 [3]) was “Uncompetitive” and the inhibition at 100 µM [4] was 3.7 ± 0.8%. The inhibition at 100 µM [5] was 25.5 ± 1.5%.
`COC(=O)[C@H]1N[C@@H](c2ccccc2)[C@@]2(C(=O)Nc3cc(C)ccc32)[C@@H]1c1ccccc1` [inhibitor 2] was tested, and the inhibition at 100 µM [1] was 22.4 ± 0.4%, the inhibition at 100 µM [2] was 4.2 ± 1% and the IC50 (IDO1 [3]) was 29.4 ± 1.3 µM. The Ki (IDO1 [3]) was 49.5 ± 6 µM, the “Type of Inhibition” value (IDO1 [3]) was “Uncompetitive” and the inhibition at 100 µM [4] was 4.2 ± 0.5%. For the same molecule, the inhibition at 100 µM [5] was 27.1 ± 2.1%.
`COC(=O)[C@H]1N[C@@H](c2ccccc2)[C@@]2(C(=O)Nc3cc(OC)ccc32)[C@@H]1c1ccccc1` [inhibitor 3] was tested, and the inhibition at 100 µM [1] was 27.8 ± 0.3%, the inhibition at 100 µM [2] was 4.3 ± 0.1% and the IC50 (IDO1 [3]) was 7.9 ± 1.7 µM. For the same molecule, the “increase of inhibitory activity by substituent modification” value (IDO1 [3]; IC50, methoxyl group at 6-position versus inhibitors 1 and 2) was 3 times, the “IDO1 inhibitory activity (IC50) relative to positive control 4−PI” value (IDO1 [3]; IC50 ratio versus 4−PI) was “~six-fold; also recorded: ~six times” and the Ki (IDO1 [3]) was 63.6 ± 3.5 µM. For the same molecule, the “Type of Inhibition” value (IDO1 [3]) was “Uncompetitive”, the inhibition at 100 µM [4] was 6.4 ± 0.8% and the “Inhibition type (reversible or irreversible)” value (IDO1 [6]) was “reversible”. For the same molecule, the inhibition at 100 µM [5] was 26.7 ± 0.7%.
In the case of `COC(=O)[C@@H]1N[C@H](c2ccc(Br)cc2)[C@]2(C(=O)Nc3ccccc32)[C@H]1c1ccccc1` [inhibitor 4], the inhibition at 100 µM [1] is reported as 20.7 ± 0.1%, the inhibition at 100 µM [2] is reported as 2.8 ± 0.3% and the IC50 (IDO1 [3]) is reported as 64.6 ± 3.9 µM. The Ki (IDO1 [3]) was 101 ± 4.4 µM, the “Type of Inhibition” value (IDO1 [3]) was “Uncompetitive” and the inhibition at 100 µM [4] was 1.7 ± 0.5%. It also gave an inhibition at 100 µM [5] of 25.6 ± 1.3%.

Source: publication PMC9104902, “Spiro-Oxindole Skeleton Compounds Are Efficient Inhibitors for Indoleamine 2,3-Dioxygenase 1: An Attractive Target for Tumor Immunotherapy” (International Journal of Molecular Sciences, 2022)
